Experimental data taken from patent US11213546B2, “Methods to mobilize tissue resident cells for adoptive t cell therapy” (Emory University, priority 2017, dated 2022).

Test system: circulating CD8+ TSP cells and CD34+ SP+ HSCs
Conditions: human peripheral blood
Description: Peripheral blood mononuclear cells (PBMCs) from healthy donors were isolated from buffy coats purchased from New York Blood Center. Gut T cells were obtained from uninvolved intestine in patients undergoing surgery for diverticular disease or gut biopsies. Bone marrow aspirates were obtained from patients with cancer undergoing diagnostic bone marrow biopsies. In some patients, blood samples were collected before and after stem cell mobilization protocol with plerixafor. […] The cells were then washed in ice-cold Hoechst wash buffer and analyzed with BD LSR-II containing UV laser.

## c1cc(CN2CCCNCCNCCCNCC2)ccc1CN1CCCNCCNCCCNCC1 [plerixafor, Plerixafor]
Baseline vs after mobilization, within 24 hours of injection, n=6
  circulating CD8+ TSP cells: marked increase
Concurrent with the CD8+ TSP increase
  mobilization of CD34+ SP+ HSCs: mobilization
